This is an account of results in patent US20170190705A1, “Compositions and Methods for Inhibiting BMP” (THE BRIGHAM AND WOMAN'S HOSPITAL, INC., priority 2014, published 2017).

In one assay the target is T1, TYRO3 (Homo sapiens, UniProt Q06418).
T1 sequence (Q06418 41-890): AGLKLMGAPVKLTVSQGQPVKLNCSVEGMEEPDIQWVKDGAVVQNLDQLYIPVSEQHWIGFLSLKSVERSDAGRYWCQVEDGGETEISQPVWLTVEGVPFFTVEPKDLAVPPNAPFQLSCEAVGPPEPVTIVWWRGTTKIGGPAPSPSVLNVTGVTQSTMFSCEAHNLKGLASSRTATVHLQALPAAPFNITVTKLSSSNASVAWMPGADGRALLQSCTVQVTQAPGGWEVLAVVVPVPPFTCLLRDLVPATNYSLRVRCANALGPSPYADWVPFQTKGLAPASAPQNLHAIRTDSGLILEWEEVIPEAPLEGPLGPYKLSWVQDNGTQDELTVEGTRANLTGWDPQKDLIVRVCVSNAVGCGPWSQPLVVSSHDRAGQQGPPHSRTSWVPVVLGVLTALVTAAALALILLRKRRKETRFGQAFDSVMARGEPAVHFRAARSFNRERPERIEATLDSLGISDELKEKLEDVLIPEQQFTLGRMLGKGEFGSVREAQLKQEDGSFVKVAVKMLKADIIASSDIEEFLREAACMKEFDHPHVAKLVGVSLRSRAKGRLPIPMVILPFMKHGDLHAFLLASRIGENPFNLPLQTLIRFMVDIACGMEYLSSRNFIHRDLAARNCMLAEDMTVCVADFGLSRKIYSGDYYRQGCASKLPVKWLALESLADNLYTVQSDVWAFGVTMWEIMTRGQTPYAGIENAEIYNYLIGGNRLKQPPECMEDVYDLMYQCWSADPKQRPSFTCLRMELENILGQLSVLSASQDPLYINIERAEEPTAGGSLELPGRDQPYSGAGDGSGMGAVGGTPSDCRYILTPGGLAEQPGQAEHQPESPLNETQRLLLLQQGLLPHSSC
Description: Kinome profiling TYRO3. The class given is biochemical. The note with it: read-out: Inhibitory activity TYRO3; for inhibition at 0.1 µM: 100 nM. The method, then:
(§1) . The kinome-wide selectivity was determined following the methods previously reported by Mohedas et al., ACS Chem Biol 2013, 8, 1291-1302 and Sanvitale et al., PLoS One 2013, 8, e62721.

A further assay concerns the target PKC-γ (Homo sapiens, UniProt P05129). Kind of assay: Kinome profiling PKC-γ. The class given is biochemical. Conditions: read-out: Inhibitory activity PKC-γ; for inhibition at 0.1 µM: 100 nM. The method, then: as §1
In a further assay the target is ERB-B2 (Homo sapiens, UniProt P04626). Kind of assay: Kinome profiling ERB-B2. The class given is biochemical. The note with it: read-out: Inhibitory activity ERB-B2; for inhibition at 0.1 µM: 100 nM. The method, then: as §1
Sequence of ERB-B2 (P04626 23-1255): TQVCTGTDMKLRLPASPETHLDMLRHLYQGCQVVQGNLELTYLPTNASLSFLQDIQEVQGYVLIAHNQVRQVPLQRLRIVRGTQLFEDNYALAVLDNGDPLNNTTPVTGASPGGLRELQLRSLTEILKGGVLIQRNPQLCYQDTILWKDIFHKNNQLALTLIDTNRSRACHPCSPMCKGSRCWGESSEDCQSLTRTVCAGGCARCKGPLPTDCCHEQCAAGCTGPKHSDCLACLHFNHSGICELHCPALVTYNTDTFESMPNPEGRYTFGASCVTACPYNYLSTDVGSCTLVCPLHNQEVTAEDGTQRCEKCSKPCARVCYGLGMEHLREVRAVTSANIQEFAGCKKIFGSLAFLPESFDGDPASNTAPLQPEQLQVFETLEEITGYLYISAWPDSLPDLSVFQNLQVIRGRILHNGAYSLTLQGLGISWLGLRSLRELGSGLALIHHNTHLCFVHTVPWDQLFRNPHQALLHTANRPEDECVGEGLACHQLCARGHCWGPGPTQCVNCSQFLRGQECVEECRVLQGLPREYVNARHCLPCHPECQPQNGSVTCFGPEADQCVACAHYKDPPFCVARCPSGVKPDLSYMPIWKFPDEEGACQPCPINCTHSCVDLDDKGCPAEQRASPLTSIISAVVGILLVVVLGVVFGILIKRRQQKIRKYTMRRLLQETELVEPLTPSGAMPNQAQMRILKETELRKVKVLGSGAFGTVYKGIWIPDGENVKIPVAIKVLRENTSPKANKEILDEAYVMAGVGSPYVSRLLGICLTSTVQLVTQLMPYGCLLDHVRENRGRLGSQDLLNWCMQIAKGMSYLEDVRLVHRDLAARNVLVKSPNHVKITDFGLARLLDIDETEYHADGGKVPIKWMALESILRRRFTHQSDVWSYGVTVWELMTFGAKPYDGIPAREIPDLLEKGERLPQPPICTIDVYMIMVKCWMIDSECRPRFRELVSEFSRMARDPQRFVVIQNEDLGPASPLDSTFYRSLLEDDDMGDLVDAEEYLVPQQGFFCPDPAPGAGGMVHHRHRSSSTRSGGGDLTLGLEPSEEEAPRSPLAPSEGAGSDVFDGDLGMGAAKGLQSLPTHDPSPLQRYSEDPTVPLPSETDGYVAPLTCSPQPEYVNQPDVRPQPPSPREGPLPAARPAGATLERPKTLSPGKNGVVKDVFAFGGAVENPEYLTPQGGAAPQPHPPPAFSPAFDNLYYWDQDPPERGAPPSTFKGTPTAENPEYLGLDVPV
For the next assay, the target named is PAK2 (Homo sapiens, UniProt Q13177). Description: Kinome profiling PAK2. The class given is biochemical. Conditions: read-out: Inhibitory activity PAK2; for inhibition at 0.1 µM: 100 nM. The method, then:
as §1

For the next assay, the target named is TNK2 (Homo sapiens, UniProt Q07912). Description: Kinome profiling TNK2. Conditions: read-out: Inhibitory activity TNK2; for inhibition at 0.1 µM: 100 nM. The class given is biochemical. The method, then: as §1
Sequence of TNK2 (Q07912 whole entry): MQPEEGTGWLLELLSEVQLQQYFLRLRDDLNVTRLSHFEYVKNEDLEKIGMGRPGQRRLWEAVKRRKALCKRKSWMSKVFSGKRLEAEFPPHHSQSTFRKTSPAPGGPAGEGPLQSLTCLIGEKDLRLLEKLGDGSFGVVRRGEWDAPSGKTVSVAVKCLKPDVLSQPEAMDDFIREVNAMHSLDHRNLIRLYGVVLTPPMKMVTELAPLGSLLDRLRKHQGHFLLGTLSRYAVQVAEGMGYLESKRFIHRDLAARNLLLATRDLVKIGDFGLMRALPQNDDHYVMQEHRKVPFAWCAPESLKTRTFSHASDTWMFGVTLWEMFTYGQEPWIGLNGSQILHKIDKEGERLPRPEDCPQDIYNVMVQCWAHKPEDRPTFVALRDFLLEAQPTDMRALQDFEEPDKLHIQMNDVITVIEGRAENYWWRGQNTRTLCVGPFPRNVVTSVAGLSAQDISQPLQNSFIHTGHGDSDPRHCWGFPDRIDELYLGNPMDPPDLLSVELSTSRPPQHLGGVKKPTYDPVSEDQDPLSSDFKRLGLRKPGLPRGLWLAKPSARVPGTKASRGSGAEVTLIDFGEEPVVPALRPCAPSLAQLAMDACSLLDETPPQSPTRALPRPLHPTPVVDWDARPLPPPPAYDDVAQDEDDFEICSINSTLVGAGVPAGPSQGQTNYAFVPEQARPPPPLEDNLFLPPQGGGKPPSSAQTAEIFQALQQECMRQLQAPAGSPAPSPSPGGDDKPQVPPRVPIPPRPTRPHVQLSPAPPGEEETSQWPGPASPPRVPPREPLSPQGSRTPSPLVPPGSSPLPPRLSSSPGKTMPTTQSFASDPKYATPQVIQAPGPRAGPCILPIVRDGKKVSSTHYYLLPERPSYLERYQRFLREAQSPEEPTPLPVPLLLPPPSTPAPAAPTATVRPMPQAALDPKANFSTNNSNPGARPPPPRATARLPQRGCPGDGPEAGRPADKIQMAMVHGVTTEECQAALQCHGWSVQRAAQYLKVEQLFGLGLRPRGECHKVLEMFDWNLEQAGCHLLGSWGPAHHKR
In another assay the target is T2, TBK1 (Homo sapiens, UniProt Q9UHD2).
T2 sequence (Q9UHD2 1-729): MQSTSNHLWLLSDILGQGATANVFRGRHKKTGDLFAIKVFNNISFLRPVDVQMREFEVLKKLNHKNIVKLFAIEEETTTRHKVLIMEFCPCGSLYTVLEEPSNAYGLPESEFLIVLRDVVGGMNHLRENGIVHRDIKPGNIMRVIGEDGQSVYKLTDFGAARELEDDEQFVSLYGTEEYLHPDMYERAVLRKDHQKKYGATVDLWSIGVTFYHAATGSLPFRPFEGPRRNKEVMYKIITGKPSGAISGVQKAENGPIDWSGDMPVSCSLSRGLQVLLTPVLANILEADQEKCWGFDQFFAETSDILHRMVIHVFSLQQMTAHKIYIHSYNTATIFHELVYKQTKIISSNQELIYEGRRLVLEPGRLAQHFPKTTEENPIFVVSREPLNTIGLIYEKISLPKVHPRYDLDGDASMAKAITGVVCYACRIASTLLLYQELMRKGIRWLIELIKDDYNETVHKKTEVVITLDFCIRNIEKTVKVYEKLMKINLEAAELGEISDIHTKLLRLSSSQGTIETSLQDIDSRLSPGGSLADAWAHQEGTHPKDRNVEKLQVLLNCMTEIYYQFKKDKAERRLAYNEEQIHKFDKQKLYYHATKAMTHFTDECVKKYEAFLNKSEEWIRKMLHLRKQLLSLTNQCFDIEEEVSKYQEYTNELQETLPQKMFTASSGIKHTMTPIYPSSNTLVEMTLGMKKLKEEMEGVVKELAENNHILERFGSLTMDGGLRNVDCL
Kind of assay: Kinome profiling TBK1. The class given is biochemical. Conditions: read-out: Inhibitory activity TBK1; for inhibition at 0.1 µM: 100 nM. The method, then: as §1

In another assay the target is CSK (Homo sapiens, UniProt P41240). Kind of assay: Kinome profiling CSK. The class given is biochemical. Conditions: read-out: Inhibitory activity CSK; for inhibition at 0.1 µM: 100 nM. The method, then:
as §1

The target of a further assay is T3, ALK5 (Homo sapiens, UniProt P36897).
T3 construct: made in house
T3 sequence (P36897 34-503): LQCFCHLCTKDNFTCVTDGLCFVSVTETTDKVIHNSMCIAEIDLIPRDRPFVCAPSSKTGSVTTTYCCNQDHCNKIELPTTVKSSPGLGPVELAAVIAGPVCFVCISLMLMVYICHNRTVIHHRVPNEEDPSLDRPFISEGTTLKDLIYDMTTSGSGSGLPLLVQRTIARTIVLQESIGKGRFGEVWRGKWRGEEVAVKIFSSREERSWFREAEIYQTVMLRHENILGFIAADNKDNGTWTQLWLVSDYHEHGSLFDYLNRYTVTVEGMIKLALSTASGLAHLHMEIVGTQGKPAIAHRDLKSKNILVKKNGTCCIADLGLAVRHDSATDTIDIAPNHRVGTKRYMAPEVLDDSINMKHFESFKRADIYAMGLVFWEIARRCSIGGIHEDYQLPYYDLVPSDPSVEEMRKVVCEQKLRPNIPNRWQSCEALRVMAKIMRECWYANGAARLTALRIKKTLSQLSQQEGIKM
Description: Thermal shift kinase assay ALK5. The class given is binding. The note with it: for ΔTm at 10 µM: 10 μM inhibitor; for ΔT ALK5: Table 6. The method, then: Thermal melting experiments were performed using a Real Time PCR machine Mx3005p (Stratagene) with a protein concentration of 1-2 μM and 10 μM inhibitor as described by Niesen et al., Nat Protoc 2007, 2, 2212-21. Recombinant human kinases for DSF screening were prepared by SGC using the published methods of Sanvitale et al., PLoS One 2013, 8, e62721. The potency and selectivity of certain compounds of the invention based on thermal shift kinase and ligand induced transcriptional activity assays are shown in Table 2.

Sequence of CSK (P41240 whole entry): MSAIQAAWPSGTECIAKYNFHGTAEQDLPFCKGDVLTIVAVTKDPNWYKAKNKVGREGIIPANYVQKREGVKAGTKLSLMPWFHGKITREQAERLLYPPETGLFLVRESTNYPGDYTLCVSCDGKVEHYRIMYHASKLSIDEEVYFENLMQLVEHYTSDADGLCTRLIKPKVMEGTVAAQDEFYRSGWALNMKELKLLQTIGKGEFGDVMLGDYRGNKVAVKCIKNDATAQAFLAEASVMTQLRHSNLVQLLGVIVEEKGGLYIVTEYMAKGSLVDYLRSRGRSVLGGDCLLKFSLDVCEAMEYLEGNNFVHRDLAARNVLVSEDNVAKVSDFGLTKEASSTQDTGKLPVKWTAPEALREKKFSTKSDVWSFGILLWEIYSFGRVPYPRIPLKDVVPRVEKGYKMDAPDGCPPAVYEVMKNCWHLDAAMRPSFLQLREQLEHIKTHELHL
Sequence of PAK2 (Q13177 whole entry): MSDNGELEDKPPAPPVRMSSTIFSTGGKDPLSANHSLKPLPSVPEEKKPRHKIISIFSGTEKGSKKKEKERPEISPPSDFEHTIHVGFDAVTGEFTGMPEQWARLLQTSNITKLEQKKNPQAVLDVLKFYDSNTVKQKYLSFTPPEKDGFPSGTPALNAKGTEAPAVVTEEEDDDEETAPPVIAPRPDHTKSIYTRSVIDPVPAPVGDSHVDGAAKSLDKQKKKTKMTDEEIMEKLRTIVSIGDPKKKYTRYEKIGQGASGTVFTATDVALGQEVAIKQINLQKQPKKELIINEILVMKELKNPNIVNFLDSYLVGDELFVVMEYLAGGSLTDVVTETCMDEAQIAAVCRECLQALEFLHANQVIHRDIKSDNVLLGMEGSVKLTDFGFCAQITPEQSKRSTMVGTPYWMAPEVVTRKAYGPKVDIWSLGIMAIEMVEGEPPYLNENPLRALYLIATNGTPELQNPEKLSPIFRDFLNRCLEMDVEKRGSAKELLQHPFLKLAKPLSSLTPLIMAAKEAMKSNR

One may read the ΔTm as the shift of the melting midpoint relative to a reference. Consider `COc1cc(-c2cc(-c3ccc(N4CCNCC4)cc3)cnc2N)cc(OC)c1OC` [Compound 15, 5-(4-(piperazin-1-yl)phenyl)-3-(3,4,5-trimethoxyphenyl)pyridin-2-amine], for which the inhibition at 0.1 µM on TYRO3 turned out to be 23%; at PKC-γ it was 1%; on ERB-B2, 0%; at PAK2 it was 0%; on TNK2, 6%; on TBK1, 6%. For the same compound, on CSK, the inhibition at 0.1 µM is 10%. For the same compound, the inhibition at 1 µM at TYRO3 turned out to be 75%; at PKC-γ it was 4%; at ERB-B2, 5%; at PAK2, 1%; at TNK2 it was 44%; at TBK1, 23%. In addition, the inhibition at 1 µM at CSK amounted to 36%. For the same compound, the shift in melting temperature (ΔTm) at 10 µM at ALK5 amounted to 13.9 °C. At ALK5, the “ΔT ALK5” value was 13.9 °C.

`COc1cc(-c2cc(-c3ccc(N4CCNCC4)cc3)cnc2C)cc(OC)c1OC` [Compound 10, 1-(4-(6-methyl-5-(3,4,5-trimethoxyphenyl)pyridin-3-yl)phenyl)piperazine]: the inhibition at 0.1 µM on TYRO3 came to 4%; at PKC-γ it was 3%; at ERB-B2 it was 0%; on PAK2, 0%; at TNK2 it was 6%; on TBK1, 1%. For the same compound, at CSK, the inhibition at 0.1 µM was 4%. Further, the inhibition at 1 µM is 21% at TYRO3; 5% on PKC-γ; 3% at ERB-B2; 1% at PAK2; 35% at TNK2; 4% at TBK1. On CSK, the inhibition at 1 µM amounted to 5%. Besides, the thermal shift (ΔTm) at 10 µM at ALK5 was 9.7 °C. At ALK5, the “ΔT ALK5” value turned out to be 9.7 °C.
